Measurements taken from patent publication US12404232B2, “Compounds and compositions for intracellular delivery of therapeutic agents” (ModernaTX, Inc., priority 2015, dated 2025).

Key:
Assay type in all cases: in vivo
mice [1] = experiment: Cytokine induction (IL-6, IP-10) in mice after intravenous administration; set-up: IL-6 / IP-10: unit not given here; conditions: 0.5 mpk; for IL-6 / IP-10: 6 hours; for Cytokine expression (pg/ml) IL-6 (6 h) / Cytokine expression (pg/ml) IP-10 (6 h): hEPO mRNA
Method in brief: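 Nanoparticle compositions given intravenously to mice at 0.5 mpk; serum cytokine concentrations measured at 6 hours, with MC3 formulation and PBS as comparators.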

rats = experiment: Cytokine induction (IP-10) in rats after intravenous administration; conditions: rat, 6 hours after administration of hEPO nanoparticle compositions, 2.0 mpk
Description: The expression of hEPO and cytokine induction in rats intravenously administered a nanoparticle composition at a dose of 2.0 mpk was measured at 6 h.
Table 19 summarizes the hEPO expression, IP-10 induction, liver and spleen levels, and alanine aminotransferase (ALT) and aspartate aminotransferase (AST) measured upon intravenous administration of formulations including Compounds 48, 49, and 50 to rat at 0.2 and 2 mpk and hEPO mRNA. hEPO concentrations were measured 6 hours after administration, while cytokine induction and liver and spleen levels were measured 48 hours after administration. hEPO and IP-10 concentrations are presented in pg/ml, while liver levels are provided in ng/g. ALT and AST levels are presented in international units.

mice [2] = experiment: Luc expression (total flux) after intramuscular administration; conditions: 6 hours after intramuscular administration, Luc mRNA and H10 mRNA

Row | SMILES | IL-6 (mice [1]) | IP-10 (mice [1]) | Cytokine expression (pg/ml) IL-6 (6 h) (mice [1]) [pg/mL] | Cytokine expression (pg/ml) IP-10 (6 h) (mice [1]) [pg/mL] | IP-10 (rats) [pg/mL] | Total flux (p/s) 0.001 mpk Dose (mice [2]) [p/s] | Total flux (p/s) 0.01 mpk Dose (mice [2]) [p/s]
1 | CCCCCC=CCC=CCCCCCCCCC(CCCCCCCCC=CCC=CCCCCC)OC(=O)CCCN(C)C (centres unmarked) [MC3, heptatriaconta-6,9,28,31-tetraen-19-yl 4-(dimethylamino)butanoate, reference compound] | 124.42 | 504.90 | 19.85 | 117.94 | 688.3 | 2.76E+06 | 3.68E+07
2 | CCCCCCCCCOC(=O)CCCCCCCN(CCO)CCCCCCCC(=O)OC(CCCCCCCC)CCCCCCCC [Compound 18, Heptadecan-9-yl 8-((2-hydroxyethyl)(8-(nonyloxy)-8-oxooctyl)amino)octanoate] | 78.76 |  | 10.16 | 299.93 | 517.3 |  | 8.84E+07
3 | CCCCCCCCCCCOC(=O)CCCCCN(CCO)CCCCCCCC(=O)OC(CCCCCCCC)CCCCCCCC [Compound 25, Heptadecan-9-yl 8-((2-hydroxyethyl)(6-oxo-6-(undecyloxy)hexyl)amino)octanoate] | 233.45 | 1194.13 |  |  | 533.5 | 3.53E+06 | 9.96E+07
